Legend:
Assay type in all cases: in vivo, Arabidopsis thaliana
ocp3 plants = assay: Effect of exogenous ABA on development of seedlings in MS-Agar plates; conditions: 0.8 μM ABA in MS-Agar; ocp3 mutant vs wt (Col-0); 17 days after seeding
Experimental: To study any possible effect of exogenous ABA application in the development of ocp3 plants, seeds of said mutant were seeded in MS-Agar plates, as well as in MS-Agar plates supplemented with an ABA concentration of 0.8 μM, and always using the wt wild type genotype (Col-0) as control plants in these experiments. […] Based on this it could therefore be deduced that the loss of function which can be attributed to the ocp3 mutation yields a hypersusceptibility to the ABA hormone and therefore the normal function of the OCP3 gene would be compatible with that of regulating any repression aspect of the ABA hormone transduction pathway, either in the sense of its synthesis or in that of its correct perception.
FIG. 2. Effect of ABA in the development of ocp3 plants compared with wt (Col-0) plants. The seeds were sterilized, stratified at 4° C. for 4 days and seeded in plates with MS-Agar medium and MS-Agar supplemented with 0.8 μM ABA. The photographs were taken 17 days after the seeding.
The plants were grown in Jiffy-7 compacted substrate (Clause-Tezier Iberica, Valencia, Spain) at 23° C. with a photoperiod of 10 hours of light and 14 of darkness. For the in vitro culture, the seeds were sterilized by adding 70% ethanol for 2 minutes and commercial 30% lye for 7 minutes. Subsequently, 5-7 washes with sterile water were performed and they were stratified at 4° C. for 4 days. […]

[1] = system: rd29A, rd29B and rd22 water stress marker genes; assay: RT-PCR expression of rd29A, rd29B and rd22 water stress marker genes after exogenous ABA application
From the text: A possibility that would explain the greater sensitivity to ABA of the ocp3 mutant as well as the increase in drought resistance could be that the mutation in said gene had caused a constitutive activation of the ABA-dependent signaling pathway and the final result of which would be the constitutive expression of dehydration-responsive genes which increase the protection levels against the damage caused by water stress and therefore this would aid the plants in better resisting this type of stress. For the purpose of studying this possibility, a molecular analysis was conducted, determining the expression levels (measured as accumulation of the corresponding mRNA by RT-PCR) of several signaling marker genes in response to dehydration, both of those genes activated by the ABA-dependent route, and of those genes the activation of which is independent of the ABA route. The rd29B and rd22 genes were used as markers of the ABA-dependent pathway, whereas rd29A was used for the ABA-independent pathway. The levels of the transcripts of these genes at different times (0, 1 h, 3 h and 6 h) were analyzed after incubating the plants in a liquid medium with 150 μM ABA.
FIG. 3. Analysis of the expression by RT-PCR of rd29A, rd29B and rd22 water stress marker genes in Col-0 and ocp3 plants, using the ELF1α gene as a control. The plants were grown in MS-Agar plates for 3 weeks and the RNAs were extracted from samples collected at different times. (A) Expression levels after exogenous 150 μM ABA application in a liquid culture. (B) Expression levels 10 minutes, 30 minutes and 1, 3 and 6 hours after subjecting the plants to dehydration.
FIG. 9. Comparison of the induction by ABA of the expression of rd29A, rd29B and rd22 water stress marker genes assayed by RT-PCR in RNA samples from Col-0, ocp3, aba2-1, abi1-1 and ocp3abi1-1 plants, and using the accumulation of the mRNA corresponding to the ELF1α gene as a control. The procedure was the same as that described for FIG. 3. […]
The semi-quantitative RT-PCR technique was used to determine the relative amounts of some mRNAs of interest. […]

OCP3 gene = assay: Real-time PCR relative expression of OCP3 after exogenous ABA application; conditions: 150 μM ABA; wt plants; evident at very short times
Experimental: In both drought and dehydration conditions, plants respond by increasing the endogenous levels of ABA, which involves the activation of a signaling cascade having as a result a series of changes at the transcriptomic level. To study the possible effect that ABA may have in transcriptional OCP3 regulation in wt plants, the relative levels of the mRNA corresponding to the OCP3 gene is measured by quantitative RT-PCR (q-RT-PCR) at different times after applying ABA, as well as after subjecting the plants to dehydration stress. The ABI1 gene was used as a control in the experiments, the expression of which is known to be induced in response to both ABA and dehydration. As can be observed in FIG. 4, both as a result of applying 150 μM ABA and after imposing a water stress to the seedlings, a sharp drop of the accumulation levels of the transcript corresponding to the OCP3 gene is observed. Said repression in the expression of the OCP3 gene as a result of the treatment with ABA or of dehydration, already becomes evident at very short times. […]
FIG. 4. Relative expression levels of OCP3 and ABI1 in response to exogenous 150 μM ABA application (A) and dehydration (B) measured by real-time PCR. […]
The samples were analyzed in triplicate and the real-time PCR reactions were performed using Sybr Green PCR Master Mix (Applied Biosystems) in an ABI PRISM 7000 sequence detector. […]

[2] = system: stomata of ocp3 and wt plants; assay: Measurement of the stomatal closure induced by ABA in epidermal peelings of rosette leaves; conditions: 100 μM ABA
From the text: There are different stimuli modifying the rate as well as the degree of opening/closure of the stomata and, among them, subjecting the plants to drought or depriving them of light should be emphasized, and both signalings are always directly related to an increase in the endogenous levels of ABA, a hormone determining the closure of stomata under inductive or stress conditions. To determine if there is any defect in ABA-mediated signaling in the ocp3 mutant, the decision was made to compare the stomatal closure rate between ocp3 plants and Col-0 plants, occurring after direct ABA application in epidermal samples (peelings) obtained from rosette leaves. […] Therefore, it is inferred from these experiments that the ocp3 mutant is more sensitive to the ABA hormone and this translates into an early response to this hormone which is manifested with an accelerated stomatal closure. The greater susceptibility to ABA is consistent with the hypersusceptibility shown by the seedlings when they are germinated and grown in the presence of ABA (FIG. 2). Furthermore, said hypersusceptibility to ABA could explain the drought resistance phenotype, since drought causes increases in ABA synthesis which in turn lead to the closure of stomata to prevent the loss of water by evapotranspiration. Thus, since the ocp3 mutant is more sensitive to ABA, it would accelerate the closure of its stomata with a drought signal and this promptness in the response could provide it with an advantage to resist the metabolic drawbacks derived from water privation better or for more time.
FIG. 7. Measurement of the stomatal closure induced by ABA (100 μM) in ocp3 and wt plants. Rosette leaves were detached from 6 week-old plants of the ocp3 and Col-0 genotypes and incubated in a solution (10 mM Mes-KOH pH 6.15 and 30 mM KCl) for 2 hours to induce the opening of the stomata. Then, 100 μM ABA was added to induce the closure of the stomata. The opening of the ostiole was measured at the different times indicated in epidermal peelings of the leaves with the different genetic backgrounds. […]

[3] = ABA application, abi1-1 and ocp3 abi1-1 double mutant, compared with wt or ocp3

CC1=CC(=O)CC(C)(C)[C@@]1(O)/C=C/C(C)=C\C(=O)O [ABA, abscisic acid]
development of the ocp3 mutant in the presence of ABA (ocp3 plants): arrested in the first stages of germination | induction and accumulation levels of rd29A, rd29B, rd22 transcripts, wt (Col-0) vs ocp3 ([1]; 150 μM ABA, liquid medium, 0, 1 h, 3 h, 6 h): no observable differences | induction of the expression of the rd29A gene [1, 3]: greatly reduced | induction of the expression of the rd29B and rd22 genes [1, 3]: virtually annulled | accumulation levels of the OCP3 transcript (OCP3 gene): sharp drop | closure of the stomata in ocp3 plants ([2]; 30 minutes after applying, ocp3 plants): accelerated closure | closure of the stomata in wt control ([2]; 30 minutes after applying, wt (Col-0)): has still not started the process for closing its stomata | state of the stomata of ocp3 and wt plants ([2]; 2 hours after applying, ocp3 and wt plants): completely closed

From patent US20090328246A1, “USE OF THE ocp3 MUTATION TO REGULATE DROUGHT RESISTANCE IN PLANTS” (Calantia Biotech, S.L., priority 2006, published 2009)
